From the METLIN SMRT retention time set (Domingo-Almenara et al. 2019)

Experiment: gradient 5% acetonitrile 3 min, to 50% in 2 min, to 85% in 15 min, held 3 min, 100 µL/min
Details: column: Zorbax Extend-C18 2.1 x 50 mm; eluents: water / acetonitrile, 0.1% formic acid
How it was run: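 Retention times of pure standards were taken from adduct peaks that were selected by computer and manually inspected. Over 3 months, mixtures of ~100 molecules were run by HPLC–quadrupole time-of-flight mass spectrometry in positive and negative ionization mode. The Zorbax Extend-C18 column (2.1 × 50 mm, 1.8 μm) ran at 100 μL/min in water and acetonitrile, each containing 0.1% formic acid, with 40 μL dead volume and 900 μL dwell volume.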

Cc1c(C)n(C)c2ccc(C(N)=O)cc12
RP-LC retention time: 704 s

COc1ccc(N2CC(c3nc(-c4ccc(CNC(=O)C5CC5)s4)no3)CC2=O)cc1 (centres undefined)
RP-LC retention time: 748 s

CN(CCc1noc(-c2ccc(F)cc2)n1)C(=O)Nc1ccccc1F
RP-LC retention time: 882 s

CS(=O)(=O)c1ccc(NC(=O)Cn2cnc3c(sc4nc(-c5ccccc5)ccc43)c2=O)cc1
RP-LC retention time: 862 s

COC(=O)c1ncn2c1C(=O)N(CCCc1ccccc1)C(C)(C(=O)NCc1ccccc1)C2 (centres undefined)
RP-LC retention time: 761 s

O=C(Nc1nccs1)C1CCCN(S(=O)(=O)c2cc(-c3noc(C4CCCC4)n3)cs2)C1 (centres undefined)
RP-LC retention time: 1060 s

COc1ccc(-n2c(=O)c(C(=O)NCC(C)C)c(O)c3cccnc32)cc1
RP-LC retention time: 1160 s

Cc1cccc(-c2noc(Cc3nnc(-c4ccccc4)o3)n2)c1
RP-LC retention time: 1030 s

CCOc1ccccc1-c1noc(CN2C(=O)COc3ccccc32)n1
RP-LC retention time: 963 s

COc1ccc(OC)c(N2C=C(C#N)S(=O)(=O)c3ccc(C)cc32)c1
RP-LC retention time: 925 s

COc1ccc(OC)c(NC(=O)Cn2cccc(-c3nc(-c4ccc(OC)c(OC)c4)no3)c2=O)c1
RP-LC retention time: 810 s

CC(C)(C)c1csc(-c2csc(S(=O)(=O)Nc3ccc(Cl)cc3)c2)n1
RP-LC retention time: 1300 s

COc1ccc(CNCCSc2nnnn2C)c(OC)c1
RP-LC retention time: 598 s

O=C(C1=CN(c2cccc(Br)c2)c2ccccc2S1(=O)=O)N1CCOCC1
RP-LC retention time: 788 s

O=C(Cc1c[nH]c2ccccc12)NCCc1c[nH]c2ccc(F)cc12
RP-LC retention time: 804 s

CC(C)NC(=O)c1cc(-c2ccncc2)n[nH]1
RP-LC retention time: 553 s

COC(=O)C1=C(CN2CCOCC2)NC(=O)NC1c1ccc(OC)c(OC)c1 (centres undefined)
RP-LC retention time: 571 s

COc1ccc(OC)c(NC(=O)C2c3ccccc3C(=O)N3CCc4cc(OC)c(OC)cc4C23)c1 (centres undefined)
RP-LC retention time: 829 s

COc1ccc(-c2nc3cnccn3c2Nc2ccc(C(=O)N3CCOCC3)cc2)cc1OC
RP-LC retention time: 609 s

COCCNC(=O)c1nc(Nc2ccc(F)cc2)c2ccccc2n1
RP-LC retention time: 681 s

COc1ccc(CNC(=O)Cn2c(=O)c(CCC(=O)NCC(C)C)nc3ccccc32)cc1
RP-LC retention time: 762 s

O=C(NCc1cc(F)cc(F)c1)C1CCN(c2ncnc3c2oc2ccccc23)CC1
RP-LC retention time: 752 s

COc1cc(=O)n(-c2ccccc2)nc1C(=O)NC(c1ccccc1)c1ccccc1
RP-LC retention time: 828 s

Cc1ccnc(NC(=O)NCCCSc2nccc(C)n2)n1
RP-LC retention time: 643 s

CC(C)Oc1ccc(CN2CCC(C)(c3noc(C4CCOCC4)n3)CC2)cc1
RP-LC retention time: 705 s

CCCn1cc(-c2nc(-c3ccccn3)no2)c(=O)c2cc(F)ccc21
RP-LC retention time: 761 s

O=C(CN1CCN(c2ccccn2)CC1)N1c2ccccc2Sc2ccccc21
RP-LC retention time: 652 s

CCCCN(C)CCCNC(=O)c1ccc2c(c1)NC(=O)C(C(C)CC)N2 (centres undefined)
RP-LC retention time: 612 s

Cc1cc(C(=O)N2CCC(c3cc(N)on3)CC2)no1
RP-LC retention time: 625 s

CCOc1ccc(CCNC(=O)C2CCCN(C(=O)c3cc4sccc4n3CC)C2)cc1OCC (centres undefined)
RP-LC retention time: 951 s

Cc1ccc2nc(NC(=O)C3CCN(S(=O)(=O)c4cn(C(C)C)cn4)CC3)sc2c1
RP-LC retention time: 849 s

COc1cccc(CNC(=O)C2CCN(C(=O)c3cc4oc5ccccc5c4n3C)CC2)c1OC
RP-LC retention time: 891 s

CN(CC1CCOCC1)S(=O)(=O)c1cccc(C(F)(F)F)c1
RP-LC retention time: 906 s

O=C(CN1C(=O)C(C(=O)N2CCCCC2)Sc2ccccc21)NC1CCCCCC1 (centres undefined)
RP-LC retention time: 1090 s

COc1ccc(CNC(=O)Cn2nc3c4sc(N(C)C)nc4ncn3c2=O)cc1
RP-LC retention time: 668 s

CC(C)CN(Cc1cccnc1)C1CN(C(=O)NCc2ccccc2)C1
RP-LC retention time: 627 s

Cc1ccc(-c2nc(CN3CCCC(C(=O)NC4CCCCNC4=O)C3)no2)cc1 (centres undefined)
RP-LC retention time: 638 s

CCOc1ccc(S(=O)(=O)N2CCC(c3noc(-c4ccccc4C)n3)CC2)cc1
RP-LC retention time: 1180 s

Cc1ccc(N2CCn3c2nc2c3c(=O)n(CC(=O)O)c(=O)n2C)cc1C
RP-LC retention time: 771 s

CN(C)S(=O)(=O)c1ccc(-c2nnc(C(=O)NCc3ccc(Cl)cc3)o2)cc1
RP-LC retention time: 909 s

CCc1nc(-c2csc(S(=O)(=O)N3CCCC(C(=O)Nc4nccs4)C3)c2)no1 (centres undefined)
RP-LC retention time: 884 s

CCc1ccccc1S(=O)(=O)NCc1cccnc1-c1ccc(OC)cc1
RP-LC retention time: 718 s

COCC1(O)CCOC2(CCN(Cc3c(F)cccc3Cl)CC2)C1 (centres undefined)
RP-LC retention time: 543 s

CCCCc1ccc(N2CCn3c2nc2c3c(=O)n(CC(=O)O)c(=O)n2C)cc1
RP-LC retention time: 826 s
